Values quoted from earlier work, collected in patent US20040248979A1, “Method of treating lower urinary tract disorders” (DYNOGEN PHARMACEUTICALS, INC., priority 2003, published 2004).

How the values were obtained:
[1] = test system: opioid receptors
[2] = test system: α2δ subunits of calcium channels
[3] = preclinical and clinical studies

COc1cccc([C@]2(O)CCCC[C@H]2CN(C)C)c1 (racemic) [Tramadol, (+/−)cis-2-[(dimethylamino)methyl]-1-(3-methoxyphenyl) cyclohexanol]
affinity for opioid receptors [1]: low affinity

NCC1(CC(=O)O)CCCCC1 [Gabapentin, 1-(aminomethyl) cyclohexaneacetic acid]
binding affinity for calcium channel subunits [2]: high binding affinity

CC(C)C[C@H](CN)CC(=O)O [Pregabalin, (3S)-3-(aminomethyl)-5-methylhexanoic acid]
binding affinity for calcium channel subunits [2]: even higher binding affinity for certain α2δ subunits of calcium channels than gabapentin

CC(OC(=O)NCC1(CC(=O)O)CCCCC1)OC(=O)C(C)C (centres unmarked) [XP13512]
blood levels of gabapentin across oral doses ([3]; broad range of oral doses): dose proportional blood levels of gabapentin | absorption from the large intestine [3]: absorbed efficiently from the large intestine
